Source: ChEMBL document CHEMBL2440100, “Therapeutic potential of the peptide leucine arginine as a new nonplant bowman-birk-like serine protease inhibitor” (J Med Chem, 2013)
Where a SMILES comes first, the peptide text is derived from it. Bridges are numbered along the chain shown (N, C = ends).

Experiment: Inhibition of bovine trypsin using benzoyl-L-arginine p-nitroanilide as substrate after 5 to 60 mins
Parameters: species or system Bos taurus
With `C[C@@H](O)[C@@H]1NC(=O)[C@H](Cc2c[nH]c3ccccc23)NC(=O)[C@@H](N)CSSC[C@@H](C(=O)O)NC(=O)[C@@H]2CCCN2C(=O)[C@H](CCCCN)NC(=O)[C@@H]2CCCN2C(=O)[C@@H]2CCCN2C(=O)[C@H](Cc2ccc(O)cc2)NC(=O)[C@H](CO)NC(=O)[C@H](CCCCN)NC1=O` the Ki was 335 nM.
In the case of `CC[C@H](C)[C@@H]1NC(=O)[C@@H]2CCCN2C(=O)[C@@H]2CCCN2C(=O)[C@H]([C@@H](C)CC)NC(=O)[C@H](CO)NC(=O)[C@H](CCCCN)NC(=O)[C@H]([C@@H](C)O)NC(=O)[C@@H](NC(=O)[C@H](CCCNC(=N)N)NC(=O)CN)CSSC[C@@H](C(=O)N[C@@H](Cc2ccccc2)C(=O)N2CCC[C@H]2C(=O)N[C@@H](CC(=O)O)C(=O)O)NC1=O`, the Ki is reported as 20 nM.
With `CC(C)C[C@H](NC(=O)[C@H](C)NC(=O)CN)C(=O)N[C@@H](CCCNC(=N)N)C(=O)NCC(=O)N[C@H]1CSSC[C@@H](C(=O)N[C@@H](CCCCN)C(=O)O)NC(=O)[C@@H]2CCCN2C(=O)[C@H](CCCCN)NC(=O)[C@@H]2CCCN2C(=O)[C@@H]2CCCN2C(=O)[C@H](Cc2ccc(O)cc2)NC(=O)[C@H](CO)NC(=O)[C@H](CCCCN)NC(=O)[C@H]([C@@H](C)O)NC(=O)[C@H](Cc2c[nH]c3ccccc23)NC1=O` (H-GALRGCWTKSYPPKPCK-OH; disulfide 6-16) the Ki was 116 nM.
`CC(C)C[C@H](N)C(=O)N[C@H](C(=O)N[C@@H](CCCNC(=N)N)C(=O)NCC(=O)N[C@H]1CSSC[C@@H](C(=O)N[C@@H](Cc2ccccc2)C(=O)N[C@H](C(=O)N[C@@H](CCCNC(=N)N)C(=O)O)C(C)C)NC(=O)[C@@H]2CCCN2C(=O)[C@H](CCCCN)NC(=O)[C@@H]2CCCN2C(=O)[C@@H]2CCCN2C(=O)[C@H](Cc2ccc(O)cc2)NC(=O)[C@H](CO)NC(=O)[C@H](CCCCN)NC(=O)[C@H]([C@@H](C)O)NC(=O)[C@H](C)NC1=O)C(C)C` (H-LVRGCATKSYPPKPCFVR-OH; disulfide 5-15) showed a Ki of 670 nM.
Work on `CC(C)C[C@H](N)C(=O)N[C@H](C(=O)N[C@@H](CCCNC(=N)N)C(=O)NCC(=O)N[C@H]1CSSC[C@@H](C(=O)N[C@@H](Cc2ccccc2)C(=O)N[C@H](C(=O)N[C@@H](CCCNC(=N)N)C(=O)O)C(C)C)NC(=O)[C@H](CCCCN)NC(=O)[C@@H]2CCCN2C(=O)[C@@H]2CCCN2C(=O)[C@H](Cc2ccc(O)cc2)NC(=O)[C@H](CO)NC(=O)[C@H](CCCCN)NC(=O)[C@H]([C@@H](C)O)NC1=O)C(C)C` (H-LVRGCTKSYPPKCFVR-OH; disulfide 5-13) yielded a Ki of 245 nM.
For `CC(C)C[C@H](N)C(=O)N[C@H](C(=O)N[C@@H](CCCNC(=N)N)C(=O)NCC(=O)N[C@H]1CSSC[C@@H](C(=O)N[C@@H](Cc2ccccc2)C(=O)N[C@H](C(=O)N[C@@H](CCCNC(=N)N)C(=O)O)C(C)C)NC(=O)[C@@H]2CCCN2C(=O)[C@H](CCCCN)NC(=O)[C@@H]2CCCN2C(=O)[C@@H]2CCCN2C(=O)[C@H](Cc2ccc(O)cc2)NC(=O)[C@H](CO)NC(=O)[C@H](CCCCN)NC(=O)[C@H](C)NC(=O)[C@H](Cc2c[nH]c3ccccc23)NC1=O)C(C)C` (H-LVRGCWAKSYPPKPCFVR-OH; disulfide 5-15), the Ki was 1110 nM.
In the case of `CC(C)C[C@H](N)C(=O)N[C@H](C(=O)N[C@@H](CCCNC(=N)N)C(=O)NCC(=O)N[C@H]1CSSC[C@@H](C(=O)N[C@@H](Cc2ccccc2)C(=O)N[C@H](C(=O)N[C@@H](CCCNC(=N)N)C(=O)O)C(C)C)NC(=O)[C@@H]2CCCN2C(=O)[C@H](CCCCN)NC(=O)[C@@H]2CCCN2C(=O)[C@@H]2CCCN2C(=O)[C@H](Cc2ccc(O)cc2)NC(=O)[C@H](C)NC(=O)[C@H](CCCCN)NC(=O)[C@H]([C@@H](C)O)NC(=O)[C@H](Cc2c[nH]c3ccccc23)NC1=O)C(C)C` (H-LVRGCWTKAYPPKPCFVR-OH; disulfide 5-15), the Ki is reported as 245 nM.
In the case of `CC(C)C[C@H](N)C(=O)N[C@H](C(=O)N[C@@H](CCCNC(=N)N)C(=O)NCC(=O)N[C@H]1CSSC[C@@H](C(=O)N[C@@H](Cc2ccccc2)C(=O)N[C@H](C(=O)N[C@@H](CCCNC(=N)N)C(=O)O)C(C)C)NC(=O)[C@@H]2CCCN2C(=O)[C@H](CCCCN)NC(=O)[C@@H]2CCCN2C(=O)[C@@H]2CCCN2C(=O)[C@H](C)NC(=O)[C@H](CO)NC(=O)[C@H](CCCCN)NC(=O)[C@H]([C@@H](C)O)NC(=O)[C@H](Cc2c[nH]c3ccccc23)NC1=O)C(C)C` (H-LVRGCWTKSAPPKPCFVR-OH; disulfide 5-15), the Ki is reported as 142 nM.
`CC(C)C[C@H](N)C(=O)N[C@H](C(=O)N[C@@H](CCCNC(=N)N)C(=O)NCC(=O)N[C@H]1CSSC[C@@H](C(=O)N[C@@H](Cc2ccccc2)C(=O)N[C@H](C(=O)N[C@@H](CCCNC(=N)N)C(=O)O)C(C)C)NC(=O)[C@@H]2CCCN2C(=O)[C@H](CCCCN)NC(=O)[C@H](C)NC(=O)[C@@H]2CCCN2C(=O)[C@H](Cc2ccc(O)cc2)NC(=O)[C@H](CO)NC(=O)[C@H](CCCCN)NC(=O)[C@H]([C@@H](C)O)NC(=O)[C@H](Cc2c[nH]c3ccccc23)NC1=O)C(C)C` (H-LVRGCWTKSYPAKPCFVR-OH; disulfide 5-15) gave a Ki of 155 nM.
With `CC(C)C[C@H](N)C(=O)N[C@H](C(=O)N[C@@H](CCCNC(=N)N)C(=O)NCC(=O)N[C@H]1CSSC[C@@H](C(=O)N[C@@H](Cc2ccccc2)C(=O)N[C@H](C(=O)N[C@@H](CCCNC(=N)N)C(=O)O)C(C)C)NC(=O)[C@@H]2CCCN2C(=O)[C@H](C)NC(=O)[C@@H]2CCCN2C(=O)[C@@H]2CCCN2C(=O)[C@H](Cc2ccc(O)cc2)NC(=O)[C@H](CO)NC(=O)[C@H](CCCCN)NC(=O)[C@H]([C@@H](C)O)NC(=O)[C@H](Cc2c[nH]c3ccccc23)NC1=O)C(C)C` (H-LVRGCWTKSYPPAPCFVR-OH; disulfide 5-15) the Ki was 400 nM.
Work on `CC(C)C[C@H](N)C(=O)N[C@H](C(=O)N[C@@H](CCCNC(=N)N)C(=O)NCC(=O)N[C@H]1CSSC[C@@H](C(=O)N[C@@H](Cc2ccccc2)C(=O)N[C@H](C(=O)N[C@@H](CCCNC(=N)N)C(=O)O)C(C)C)NC(=O)[C@H](C)NC(=O)[C@H](CCCCN)NC(=O)[C@@H]2CCCN2C(=O)[C@@H]2CCCN2C(=O)[C@H](Cc2ccc(O)cc2)NC(=O)[C@H](CO)NC(=O)[C@H](CCCCN)NC(=O)[C@H]([C@@H](C)O)NC(=O)[C@H](Cc2c[nH]c3ccccc23)NC1=O)C(C)C` (H-LVRGCWTKSYPPKACFVR-OH; disulfide 5-15) yielded a Ki of 252 nM.
In the case of `CC(C)C[C@H](N)C(=O)N[C@H](C(=O)N[C@@H](CCCNC(=N)N)C(=O)NCC(=O)N[C@H]1CSSC[C@@H](C(=O)O)NC(=O)[C@@H]2CCCN2C(=O)[C@H](CCCCN)NC(=O)[C@@H]2CCCN2C(=O)[C@@H]2CCCN2C(=O)[C@H](Cc2ccc(O)cc2)NC(=O)[C@H](CO)NC(=O)[C@H](CCCCN)NC(=O)[C@H]([C@@H](C)O)NC(=O)[C@H](Cc2c[nH]c3ccccc23)NC1=O)C(C)C` (H-LVRGCWTKSYPPKPC-OH; disulfide 5-15), the Ki is reported as 322 nM.
`C[C@H](NC(=O)[C@@H](N)CO)C(=O)N1CCC[C@H]1C(=O)N[C@@H](CCCNC(=N)N)C(=O)NCC(=O)N[C@H]1CSSC[C@@H](C(=O)N[C@@H](CCCCN)C(=O)O)NC(=O)[C@@H]2CCCN2C(=O)[C@H](CCCCN)NC(=O)[C@@H]2CCCN2C(=O)[C@@H]2CCCN2C(=O)[C@H](Cc2ccc(O)cc2)NC(=O)[C@H](CO)NC(=O)[C@H](CCCCN)NC(=O)[C@H]([C@@H](C)O)NC(=O)[C@H](Cc2c[nH]c3ccccc23)NC1=O` (H-SAPRGCWTKSYPPKPCK-OH; disulfide 6-16) gave a Ki of 129 nM.
